Measurements reported in EP0126849A1, “Pharmacologically active N-amino hydantoin derivatives, their synthesis and intermediates” (THE WELLCOME FOUNDATION LIMITED, priority 1983, dated 1984).
≈ marks a conversion by molar mass, not a printed value.

How the values were obtained:
[1] = tested on: rabbit platelet aggregation; assay: Ex vivo rabbit platelet aggregation after i.v. infusion of the hydantoin (ADP 20 µM); type: in vivo, rabbits; conditions: i.v. infusion for 15 min, blood sample 10 min after start of infusion
Procedure: Male rabbits (2-2.5 kg body weight) were anaesthetized with sodium pentobarbitone (30 mg/kg, i.v. followed by maintenance doses of 3mg/kg) and systemic arterial blood pressure (BP) was recorded from a cannula filled with
heparinized saline (5 units/ml) in a carotid artery; no heparin was administered to the animal. Hydantoins were administered via a cannula in a femoral vein. Blood samples (1.5 ml) were slowly collected into a plastic syringe containing tri-sodium citrate (3.18%, 0.15 ml) from a cannula inserted into a femoral artery, shaken gently and transferred to an Eppendorf plastic tube and spun in a modified Eppendorf centrifuge for 2 sec (Model 5412, maximum centrifugal force 10,000 x g). The PRP was collected and a 0.35 ml aliquot was transferred to the aggregometer and incubated at 37°C for 1 minute prior to addition of sufficient ADP (20 µM) to produce near-maximal aggregation. The time-interval between removal of blood samples and the transference of the PRP to the aggregometer was less than 1.5 min.
Blood samples were removed at 10 min. intervals once the BP of the rabbit had reached steady resting levels, 10-20 min. following the preparative surgical procedures. After three control blood samples had been prepared and the control aggregation of the platelets measured, the hydantoin was infused intravenously for 15 min from a Braun slow-infusion apparatus. Blood samples were collected 10 min after the start of the infusion. Two further 10 min. samples post-infusion were collected prior to commencing further infusions.
The following results list values of ED50 and change in blood pressure. For comparison, also given are the results obtained upon administration of PGIZ and Compound X.

B.P. = assay: Cardiovascular studies in the dog: vasodepressor potency and duration; type: in vivo, Dogs; conditions: i.v. bolus
Procedure: Dogs (10-15 kg body weight) were anaesthetized with chloralose (80 mg/kg i.v.) and maintained with subcutaneous injections of pentobarbitone (3 mg/kg). Drugs were administered via a femoral vein by bolus injection and B.P. was recorded from the right femoral artery. Results give vasodepressor potency and t1 2 duration. Figures for Compound X are provided for comparison.

platelet aggregation = assay: Inhibition of platelet aggregation in human platelet-rich plasma (Born-type aggregometer, ADP or other aggregating agent); type: cell-based; conditions: for IC50: Homo sapiens, Platelet, 1 min, 1 min incubation at 37°C before aggregating agent, read-out: IC50; for IC50 / Potency relative to PGI2: human PRP; for Potency relative to PGI2: 1 min incubation, PGI2 = 1; for Increase on Incubation (min) 5: increase in potency after 5 min incubation in PRP; for Increase on Incubation (min) 10: increase in potency after 10 min incubation in PRP
Procedure: Human blood was freshly collected into siliconized (Siloclad; Clay Adams) plastic (Sterilin Ltd.) vessels containing trisodium citrate (3.15%; 0.1 volume with 0.9 volume blood) and centrifuged (200 g for 15 min) at room temperature. The platelet-rich plasma (PRP) was withdrawn into plastic containers and kept at room temperature. Inhibition of […] prior to addition of sufficient adenosine diphosphate (ADP) or other aggregating agent to just cause a non-reversing control aggregation. Dose-inhibition curves were constructed for each compound and the ID50 (dose causing 50% inhibition) was calculated as the dose required to reduce the aggregation to 50% of its control amplitude. […] For comparison, also given are the results upon administration of 5-(6-carboxyhexyl)-1-(3-cyclohexyl-3-hydroxypropyl)hydantoin (Compound X) which is disclosed in UK Specification 1,595,694. -
In this and subsequent biological examples, where a compound number refers to a single diastereoisomer, a mixture of diastereoisomers is indicated by two compound numbers separated by /.

[2] = tested on: acid-ethanol induced gastric lesions; assay: Inhibition of acid-ethanol induced gastric lesions in rats (cytoprotection); type: in vivo; conditions: rat, oral
Procedure: The inhibition of acid-ethanol induced gastric lesions in rats (cytoprotection) was measured for various doses of orally administered hydantoin. Figures for compound X are given for comparison.

[3] = tested on: mean systemic arterial blood pressure (BP); assay: Cardiovascular actions in rats: fall in blood pressure and duration of the hypotensive effect; type: in vivo, male Wistar rats; conditions: for Fall in BP Relative Potency PGE1 / Fall in BP Relative Potency PGI2: anaesthetized rat, i.v. injection; for Fall in BP Relative Potency PGE1: potency ratio against PGE1; for Fall in BP Relative Potency PGI2: potency ratio against PGI2; for Duration t½: time from peak hypotensive response to recovery to half its peak, rat i.v.
Procedure: Anaesthesia was induced in male Wistar rats (250-300 g body weight) with sodium pentobarbitone (30 mg kg^-1, i.v.) and supplemented (3 mg kg^-1) when required. Arterial pressure was recorded from a cannulated femoral artery and heart rate derived from the arterial pulse. Rectal temperature was maintained at 37°C by thermistor-controlled radiant heat. Each compound was injected into a femoral vein in a volume of 0.25 ml and flushed in with 0.2 ml of saline (0.9% w/v). Dose-response relationships for the fall in mean systemic arterial blood pressure (BP) with the hydantoins were constructed and compared to those obtained with PGI2 and PGE, in the same animal, and a potency ratio calculated. […] Figures for Compound X and PGI2 are listed for comparison.

[4] = tested on: systemic arterial blood pressure (BP); assay: Concurrent change in systemic arterial blood pressure in anaesthetized rabbits; type: in vivo; conditions: for Δ BP: anaesthetized rabbit, i.v. infusion, at the ED50 dose; for blood pressure depressant activity: at the ED50 doses, rabbit, stated in words
Procedure: Male rabbits (2-2.5 kg body weight) were anaesthetized with sodium pentobarbitone (30 mg/kg, i.v. followed by maintenance doses of 3mg/kg) and systemic arterial blood pressure (BP) was recorded from a cannula filled with heparinized saline (5 units/ml) in a carotid artery; no heparin was administered to the animal. Hydantoins were administered via a cannula in a femoral vein. Blood samples (1.5 ml) were slowly collected into a plastic syringe containing tri-sodium citrate (3.18%, 0.15 ml) from a cannula inserted into a femoral artery, shaken gently and transferred to an Eppendorf plastic tube and spun in a modified Eppendorf centrifuge for 2 sec (Model 5412, maximum centrifugal force 10,000 x g). The PRP was collected and a 0.35 ml aliquot was transferred to the aggregometer and incubated at 37°C for 1 minute prior to addition of sufficient ADP (20 µM) to produce near-maximal aggregation. The time-interval between removal of blood samples and the transference of the PRP to the aggregometer was less than 1.5 min. […] After three control blood samples had been prepared and the control aggregation of the platelets measured, the hydantoin was infused intravenously for 15 min from a Braun slow-infusion apparatus. Blood samples were collected 10 min after the start of the infusion. Two further 10 min. samples post-infusion were collected prior to commencing further infusions. The following results list values of ED50 and change in blood pressure. For comparison, also given are the results obtained upon administration of PGIZ and Compound X.

[5] = Dose 1.25 ug kg^-1, duration of vasodepressor effect

Row | IC50 (platelet aggregation) [ng/mL] | Increase on Incubation (min) 5 (platelet aggregation) | Increase on Incubation (min) 10 (platelet aggregation) | SMILES | ED50 [1] [µg/kg/min] | Δ BP (B.P.; Dose 0.625 ug kg^-1) [mm Hg] | t1/2 (B.P.; Dose 0.625 ug kg^-1, duration of vasodepressor effect) [min] | Δ BP (B.P.; Dose 1.25 ug kg^-1) [mm Hg] | t1/2 (B.P.; [5]) [min] | Potency relative to PGI2 (platelet aggregation) | % inhibition ([2]; Dose 10 μg kg^-1) [%] | % inhibition ([2]; Dose 25 μg kg^-1) [%] | % inhibition ([2]; Dose 50 μg kg^-1) [%] | Fall in BP Relative Potency PGE1 [3] | Fall in BP Relative Potency PGI2 [3] | Duration t½ [3] [min] | Δ BP [4] [mmHg] | blood pressure depressant activity [4] | Δ BP (B.P.; Dose 2.5 ug kg^-1) [mm Hg] | t1/2 (B.P.; Dose 2.5 ug kg^-1, duration of vasodepressor effect) [min] | % inhibition ([2]; Dose 5 μg kg^-1) [%]
1 | 2 (≈ 5.44 nM) | x5 | x20 | O=C(O)CCCCCCC1C(=O)NC(=O)N1N=CC(O)C1CCCCC1 (single isomer, unassigned) [Compound No. 6, 5-(6-carboxyhe-xyl)-1-(2-cyclohexyl-2-hydroxyethylideneamino)hydantoin] | 0.15 | -54 | 60 | -65 | >60 | 0.30 | 31 ± 20 | 50 ± 21 | 69 ± 8 | 0.5 | 0.041 | 17.0 | 0 | no significant blood pressure depressant activity |  |  | 
2 | 16 (≈ 43.5 nM) | x7 | x20 | O=C(O)CCCCCCC1C(=O)NC(=O)N1N=CC(O)C1CCCCC1 (centres unmarked) [Compound No. 3, 5-(6-carboxyhexyl)-1-(2-cyclohexyl-2-hydroxy-ethylideneamino)hydantoin] | 2.0 |  |  |  |  | 0.02 |  |  |  | 0.324 | 0.027 | 11.0 | 0 | no significant blood pressure depressant activity |  |  | 
3 | 1.5 (≈ 4.07 nM) | x2 | x3 | O=C(O)CCCCCCC1C(=O)NC(=O)N1CCC(O)C1CCCCC1 (centres unmarked) [Compound X, 5-(6-carboxyhexyl)-1-(3-cyclohexyl-3-hydroxypropyl)hydantoin, reference compound] | 3.3 |  |  | -45 | 2.8 | 0.21 | 80 ± 9 | 89 ± 6 |  | 0.72 | 0.06 | 4.0 | -5 |  | -56 | 6.2 | 46 ± 26
4 |  |  |  | CCCCC[C@H](O)/C=C/[C@@H]1[C@H]2C/C(=C/CCCC(=O)O)O[C@H]2C[C@H]1O [PGI2, reference compound] | 0.2 |  |  |  |  |  |  |  |  | 11.0 |  | 0.3 | -20 |  |  |  | 
